pIC50: −log10 of the molar value. Like-named read-outs stand apart in the source and are kept apart here.
Tests used:
[1] = biological target: human JAK1 (a.a. 837-1142) (Homo sapiens, UniProt P23458); experiment: In vitro JAK kinase assay (HTRF), JAK1; type: biochemical; details: 1 mM ATP
Description: (§1) The catalytic activity of JAK1, JAK2 or JAK3 was assayed by measuring the phosphorylation of a biotinylated peptide. The phosphorylated peptide was detected by homogenous time resolved fluorescence (HTRF). IC5os of compounds are measured for each kinase in the 40 microL reactions that contain the enzyme, ATP and 500 nM peptide in 50 mM Tris (pH 7.8) buffer with 100 mM NaCl, 5 mM DTT, and 0.1 mg/mL (0.01%) BSA. […] Reactions are carried out at room temperature for 1 hour and then stopped with 20 μL 45 mM EDTA, 300 nM SA-APC, 6 nM Eu-Py20 in assay buffer (Perkin Elmer, Boston, MA). Binding to the Europium labeled antibody takes place for 40 minutes and HTRF signal was measured on a Fusion plate reader (Perkin Elmer, Boston, MA).

JAK2 (a.a. 828-1132) = JAK2 (a.a. 828-1132) (Homo sapiens (Human), UniProt O60674); experiment: In vitro JAK kinase assay (HTRF), JAK2, for JAK2/JAK1 ratio; type: biochemical; details: IC50 ratio at 1 mM ATP
Description: as §1

IgE = details: CSU patients, after 12 weeks, with second-generation H1 antihistamine, cited from earlier work

Sequence of JAK2 (a.a. 828-1132) (O60674 828-1132): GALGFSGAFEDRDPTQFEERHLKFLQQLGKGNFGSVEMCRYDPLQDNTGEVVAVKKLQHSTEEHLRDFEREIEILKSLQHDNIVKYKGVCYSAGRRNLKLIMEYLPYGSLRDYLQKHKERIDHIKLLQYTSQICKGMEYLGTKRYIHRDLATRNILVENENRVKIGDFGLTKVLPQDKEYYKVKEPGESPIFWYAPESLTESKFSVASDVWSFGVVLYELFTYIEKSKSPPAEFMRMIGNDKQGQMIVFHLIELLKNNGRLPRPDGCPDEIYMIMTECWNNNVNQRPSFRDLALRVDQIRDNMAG

| Compound | pIC50 [1] | JAK2/JAK1 (JAK2 (a.a. 828-1132)) | patients achieving a complete response (IgE) | patients achieving a complete response (IgE; listed as omalizumab) [%] |
| --- | --- | --- | --- | --- |
| C[C@@H](O)c1nc2cnc3ccsc3c2n1[C@H]1CC[C@H](CC#N)OC1 [compound 5, ((2R,5S)-5-{2-[(1R)-1-hydroxyethyl]-1H-imidazo[4,5-d]thieno[3,2-b]pyridin-1-yl}tetrahydro-2H-pyran-2-yl)acetonitrile] | > 7.00 | >10 | – | – |
| CCNCc1cc(O[C@H]2CC[C@@H](N3CC(CC#N)(n4cc(-c5ncnc6[nH]ccc56)cn4)C3)CC2)nc(C(F)(F)F)c1 [compound 19, {1-(cis-4-{[4-[(ethylamino)methyl]-6-(trifluoromethyl)pyridin-2-yl]oxy}cyclohexyl)-3-[4-(7H-pyrrolo[2,3-d]pyrimidin-4-yl)-1H-pyrazol-1-yl]azetidin-3-yl}acetonitrile] | > 8.00 | >10 | – | – |
| CC(C)(O)c1cc(O[C@H]2CC[C@@H](N3CC(CC#N)(n4cc(-c5ncnc6[nH]ccc56)cn4)C3)CC2)nc(C(F)(F)F)c1 [compound 20, {1-(cis-4-{[4-(1-hydroxy-1-methylethyl)-6-(trifluoromethyl)pyridin-2-yl]oxy}cyclohexyl)-3-[4-(7H-pyrrolo[2,3-d]pyrimidin-4-yl)-1H-pyrazol-1-yl]azetidin-3-yl}acetonitrile] | > 8.00 | >10 | – | – |
| N#CCC1(n2cc(-c3ncnc4[nH]ccc34)cn2)CN([C@H]2CC[C@@H](Oc3cc(CN4CC[C@@H](O)C4)cc(C(F)(F)F)n3)CC2)C1 [compound 21, {1-(cis-4-{[4-{[(3R)-3-hydroxypyrrolidin-1-yl]methyl}-6-(trifluoromethyl)pyridin-2-yl]oxy}cyclohexyl)-3-[4-(7H-pyrrolo[2,3-d]pyrimidin-4-yl)-1H-pyrazol-1-yl]azetidin-3-yl}acetonitrile] | > 8.00 | >10 | – | – |
| N#CCC1(n2cc(-c3ncnc4[nH]ccc34)cn2)CN([C@H]2CC[C@@H](Oc3cc(CN4CC[C@H](O)C4)cc(C(F)(F)F)n3)CC2)C1 [compound 22, {1-(cis-4-{[4-{[(3S)-3-hydroxypyrrolidin-1-yl]methyl}-6-(trifluoromethyl)pyridin-2-yl]oxy}cyclohexyl)-3-[4-(7H-pyrrolo[2,3-d]pyrimidin-4-yl)-1H-pyrazol-1-yl]azetidin-3-yl}acetonitrile] | > 8.00 | >10 | – | – |
| C[C@@H](CO)NCc1cc(OC2CCN([C@H]3C[C@](CC#N)(n4cc(-c5ncnc6[nH]ccc56)cn4)C3)CC2)nc(C(F)(F)F)c1 [compound 23, {trans-3-(4-{[4-({[(1S)-2-hydroxy-1-methylethyl]amino}meth-yl)-6-(trifluoromethyl)pyridin-2-yl]oxy}piperidin-1-yl)-1-[4-(7H-pyrrolo[2,3-d]pyrimidin-4-yl)-1H-pyrazol-1-yl]cyclobutyl}acetonitrile] | > 8.00 | >10 | – | – |
| C[C@@H](O)CNCc1cc(OC2CCN([C@H]3C[C@](CC#N)(n4cc(-c5ncnc6[nH]ccc56)cn4)C3)CC2)nc(C(F)(F)F)c1 [compound 24, {trans-3-(4-{[4-({[(2R)-2-hydroxypropyl]amino}methyl)-6-(trifluoromethyl)pyridin-2-yl]oxy}piperidin-1-yl)-1-[4-(7H-pyrrolo[2,3-d]pyrimidin-4-yl)-1H-pyrazol-1-yl]cyclobutyl}acetonitrile] | > 8.00 | >10 | – | – |
| C[C@H](O)CNCc1cc(OC2CCN([C@H]3C[C@](CC#N)(n4cc(-c5ncnc6[nH]ccc56)cn4)C3)CC2)nc(C(F)(F)F)c1 [compound 25, {trans-3-(4-{[4-({[(2S)-2-hydroxypropyl]amino}methyl)-6-(trifluoromethyl)pyridin-2-yl]oxy}piperidin-1-yl)-1-[4-(7H-pyrrolo[2,3-d]pyrimidin-4-yl)-1H-pyrazol-1-yl]cyclobutyl}acetonitrile] | > 8.00 | >10 | – | – |
| N#CC[C@]1(n2cc(-c3ncnc4[nH]ccc34)cn2)C[C@H](N2CCC(Oc3cc(CCO)cc(C(F)(F)F)n3)CC2)C1 [compound 26, {trans-3-(4-{[4-(2-hydroxyethyl)-6-(trifluoromethyl)pyridin-2-yl]oxy}piperidin-1-yl)-1-[4-(7H-pyrrolo[2,3-d]pyrimidin-4-yl)-1H-pyrazol-1-yl]cyclobutyl}acetonitrile] | > 8.00 | >10 | – | – |
| Omalizumab: an anti-IgE monoclonal antibody (administered subcutaneously) | – | – | approximately 35% | ~35 |

Now from value to compound, other results behind:

| pIC50 [1] | JAK2/JAK1 (JAK2 (a.a. 828-1132)) | Compound | patients achieving a complete response (IgE) | patients achieving a complete response (IgE; listed as omalizumab) [%] |
| --- | --- | --- | --- | --- |
| > 8.00 | >10 | N#CCC(C1CCN(c2cccc(Cl)n2)C1)n1cc(-c2ncnc3[nH]ccc23)cn1 (single isomer, unassigned) [compound 6, 3-[1-(6-chloropyridin-2-yl)pyrrolidin-3-yl]-3-[4-(7H-pyrrolo[2,3-d]pyrimidin-4-yl)-1H-pyrazol-1-yl]propanenitrile] | – | – |
| > 8.00 | >10 | N#CCC1(n2cc(-c3ncnc4[nH]ccc34)cn2)CN(C2CCN(C(=O)Nc3ccc(F)cc3C(F)(F)F)CC2)C1 [compound 2, 4-{3-(Cyanomethyl)-3-[4-(7H-pyrrolo[2,3-d]pyrimidin-4-yl)-1H-pyrazol-1-yl]azetidin-1-yl}-N-[4-fluoro-2-(trifluoromethyl)phenyl] piperidine-1-carboxamide] | – | – |
| > 8.00 | >10 | N#CCC1(n2cc(-c3ncnc4[nH]ccc34)cn2)CN(C2CCN(C(=O)c3ccnc(C(F)(F)F)n3)CC2)C1 [compound 3, [3-[4-(7H-pyrrolo[2,3-d]pyrimidin-4-yl)-1H-pyrazol-1-yl]-1-(1-{[2-(trifluoromethyl)pyrimi-din-4-yl]carbonyl}piperidin-4-yl)azetidin-3-yl]acetonitrile] | – | – |
| > 8.00 | >10 | N#CCC(C1CCN(c2nc3cccnc3o2)C1)n1cc(-c2ncnc3[nH]ccc23)cn1 (centres unmarked) [compound 7, 3-(1-[1,3]oxazolo[5,4-b]pyridin-2-ylpyrrolidin-3-yl)-3-[4-(7H-pyrrolo[2,3-d]pyrimidin-4-yl)-1H-pyrazol-1-yl]propanenitrile] | – | – |
| > 8.00 | >10 | N#CCC(CN1CCN(C(=O)c2ccc(C#N)cc2F)CC1)n1cc(-c2ncnc3[nH]ccc23)cn1 (centres unmarked) [compound 8, 4-[(4-{3-cyano-2-[4-(7H-pyrrolo[2,3-d]pyrimidin-4-yl)-1H-pyrazol-1-yl]propyl}piperazin-1-yl)carbanoyl]-3-fluorobenzonitrile] | – | – |
| > 8.00 | >10 | N#CCC(CN1CCN(C(=O)c2ccc(C#N)cc2F)CC1)n1ccc(-c2ncnc3[nH]ccc23)c1 (centres unmarked) [compound 9, 4-[(4-{3-cyano-2-[3-(7H-pyrrolo[2,3-d]pyrimidin-4-yl)-1H-pyrrol-1-yl]propyl}piperazin-1-yl)carbonyl]-3-fluorobenzonitrile] | – | – |
| > 8.00 | >10 | N#CC[C@]1(n2cc(-c3ncnc4[nH]ccc34)cn2)C[C@H](N2CCN(C(=O)c3ccnc(C(F)(F)F)n3)CC2)C1 [compound 10, [trans-1-[4-(7H-pyrrolo[2,3-d]pyrimidin-4-yl)-1H-pyrazol-1-yl]-3-(4-{[2-(trifluoromethyl)pyrimi-din-4-yl]carbonyl}piperazin-1-yl)cyclobutyl]acetonitrile] | – | – |
| > 8.00 | >10 | N#CC[C@]1(n2cc(-c3ncnc4[nH]ccc34)cn2)C[C@H](N2CCC(Oc3cc(CN4CC(O)C4)cc(C(F)(F)F)n3)CC2)C1 [compound 11, {trans-3-(4-{[4-[(3-hydroxyazetidin-1-yl)methyl]-6-(trifluoromethyl)pyridin-2-yl]oxy}piperidin-1-yl)-1-[4-(7H-pyrrolo[2,3-d]pyrimidin-4-yl)-1H-pyrazol-1-yl]cyclobutyl}acetonitrile] | – | – |
| > 8.00 | >10 | N#CC[C@]1(n2cc(-c3ncnc4[nH]ccc34)cn2)C[C@H](N2CCC(Oc3cc(CN4CCC[C@H]4CO)cc(C(F)(F)F)n3)CC2)C1 [compound 12, {trans-3-(4-{[4-{[(2S)-2-(hydroxymethyl)pyrroli-din-1-yl]methyl}-6-(trifluoromethyl)pyridin-2-yl]oxy}piperidin-1-yl)-1-[4-(7H-pyrrolo[2,3-d]pyrimidin-4-yl)-1H-pyrazol-1-yl]cyclobutyl}acetonitrile] | – | – |
| > 8.00 | >10 | N#CC[C@]1(n2cc(-c3ncnc4[nH]ccc34)cn2)C[C@H](N2CCC(Oc3cc(CN4CCC[C@@H]4CO)cc(C(F)(F)F)n3)CC2)C1 [compound 13, {trans-3-(4-{[4-{[(2R)-2-(hydroxymethyl)pyrroli-din-1-yl]methyl}-6-(trifluoromethyl)pyridin-2-yl]oxy}piperidin-1-yl)-1-[4-(7H-pyrrolo[2,3-d]pyrimidin-4-yl)-1H-pyrazol-1-yl]cyclobutyl}acetonitrile] | – | – |
| > 8.00 | >10 | C[C@H](NC(=O)c1cc(F)c(N2CC(CC#N)(n3cc(-c4ncnc5[nH]ccc45)cn3)C2)cc1F)C(F)(F)F [compound 16, 4-{3-(cyanomethyl)-3-[4-(7H-pyrrolo[2,3-d]pyrimidin-4-yl)-1H-pyrazol-1-yl]azetidin-1-yl}-2,5-difluoro-N-[(1S)-2,2,2-trifluoro-1-methylethyl)benzamide] | – | – |
| > 8.00 | >10 | N#CCC1(n2cc(-c3ncnc4[nH]ccc34)cn2)CN([C@H]2CC[C@@H](Oc3cc(CCO)nc(C(F)(F)F)n3)CC2)C1 [compound 18, {1-(cis-4-{[6-(2-hydroxyethyl)-2-(trifluoromethyl)pyrimi-din-4-yl]oxy}cyclohexyl)-3-[4-(7H-pyrrolo[2,3-d]pyrimidin-4-yl)-1H-pyrazol-1-yl]azetidin-3-yl}acetonitrile] | – | – |

Source: patent US20240058343A1, “TREATMENT OF URTICARIA USING JAK INHIBITORS” (Incyte Corporation, priority 2022, published 2024)
